Laboratory results reported in patent publication US20140080706A1, “METHOD OF PREPARING AN AQUEOUS TANK MIX COMPRISING A BASE” (BASF SE, priority 2011, published 2014).

Tests used:
[1] = Volatility: loss of dicamba from tank mix on petri dish; type: physicochemical; settings: 70° C., 24 h
Method: The volatility was determined by analyzing the loss of material by HLPL at 70° C. after 24 h at atmospheric pressure. A sample of the aqueous tank mix (300 l/ha) was placed on the petri dish with a defined area (corresponding to a desired field application rate, such as 500 g/ha pesticide).
The application rate was 500 g/ha dicamba (free acid), 1000 g/ha potassium glyphosate, 300 g/ha Genamin® T050 (“Ad2”), 300 g/ha Preference® (“Ad3”) and optionally 250, 500 or 1000 g/ha K2CO3. Deionised water (hardness <1° dH) was used to prepare the samples. Dicamba BAPMA refers to the bis(3-aminopropyl)methylamine salt of dicamba.

pH of tank mix = type: physicochemical
Method: According to the invention, an aqueous tank mix which has a tank mix acidity of at least pH 5.0 was prepared. Preferably, the tank mix acidity corresponds to a pH of at least 6.0, better of at least 7.0, more preferably of at least 7.5, especially preferred of at least 8.0 and in particular of at least 8.5. The tank mix acidity may correspond to a pH of up to 13.0, preferably of up to 11.0 and in particular of up to 9.0. The tank mix acidity is usually determined as pH value at 20° C. without dilution of the tank mix.

[2] = typical value; cited from earlier work
[3] = test system: Soya (glycine max) Variant Deltapine; experiment: Biological evaluation of low phytotoxicity on glyphosate-resistant soya; type: in vivo; settings: glyphosate tank mixes
Method: For the greenhouse tests, maize (cultivar Amadeo) and Chenopodium album was sown or potted in loamy sandy soil to a depth of 1-2 cm. When the plants had reached a growth height of 10 to 25 cm (around 10 to 21 days after sowing), the spray mixtures were applied to the plants in a spraying cabin.
The temperatures in the experimental period, which lasted for 3 to 4 weeks, were between 18-35° C. During this time, the experimental plants received optimum watering, with nutrients being supplied via the water used for watering.
The herbicidal activity was evaluated by awarding scores to the treated plants in comparison to the untreated control plants (Table 1 and 2). The evaluation scale ranges from 0% to 100% activity. 100% activity means the complete death at least of those parts of the plant that are above ground. Conversely, 0% activity means that there were no differences between treated and untreated plants.
The biological evaluation was made as described in Example 6. The tank mixes were applied at a application rate of 375 l/ha (125 or 250 g of glyphosate free acid/ha and 300 g of adjuvant/ha). The adjuvant Ad1 is an aqeuous solution of 200 g/l Genamin® T150 (a tallow fatty amine ethoxylate with 15 EO). The adjuvant Ad2 is Genamin® T050 (a tallow fatty amine ethoxylate with 5 EO).
Soya (glycine max) Variant Deltapine was genetically engineered to resist glyphosate.

COc1c(Cl)ccc(Cl)c1C(=O)O [Dicamba free acid, dicamba]
Loss of dicamba, Loss (wt %) ([1]; atmospheric pressure, application rate 500 g/ha dicamba): 80 wt % | pH of tank mix (pH of tank mix; Table 5 tank mixes, 500 g/ha dicamba, 300 l/ha): 3.0

CN(CCCN)CCCN.COc1c(Cl)ccc(Cl)c1C(=O)O [Dicamba BAPMA, bis(3-aminopropyl)methylamine salt of dicamba]
Loss of dicamba, Loss (wt %) ([1]; 500 g/ha dicamba, 1000 g/ha potassium glyphosate, 300 g/ha Ad2, 300 g/ha Ad3, deionised water): <1 wt % | pH of tank mix (pH of tank mix; Table 6 tank mixes, deionised water (hardness <1° dH)): 6.3

O=C(O)CNCP(=O)(O)O [glyphosate]
pKa for the amine [2]: 11.0 | pKa for the carboxylic acid [2]: 2.3 | pKa for the first phosphonic acid [2]: 0.8 | pKa for the second phosphonic acid [2]: 6.0

O=C([O-])[O-].[K+].[K+] [Example K2CO3, K2CO3]
phytotoxity effect on plants of addition of K2CO3 [3]: no phytotoxity effect
